SMILES strings stand for the structures.

The assay concerns the target T1, PxpR (Corynebacterium glutamicum, UniProt Q8NRP0).
T1 construct: gene Cgl1008; PxpR protein with a C-terminal Strep-tag-II (PxpR-Strep)
T1 sequence (Q8NRP0 11-227): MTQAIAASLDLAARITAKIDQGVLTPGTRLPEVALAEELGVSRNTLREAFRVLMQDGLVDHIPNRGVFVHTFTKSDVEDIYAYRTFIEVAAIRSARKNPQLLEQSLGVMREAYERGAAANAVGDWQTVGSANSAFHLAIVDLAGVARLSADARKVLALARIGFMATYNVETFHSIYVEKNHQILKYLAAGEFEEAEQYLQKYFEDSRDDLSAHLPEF
Kind of assay: isothermal titration calorimetry (ITC) with purified PxpR-Strep, […]°C, pH […]. It is filed as binding.

A word on the Kd: it is the free concentration of one partner at which half of the binding sites on the other are occupied at equilibrium, for simple one-to-one binding. A low value points to a tighter complex. As for `O=C1CC[C@@H](C(=O)O)N1` [5-OP, 5-oxo-L-proline], the Kd is 726 ± 23 nM.

(Values after PMC13274462, “Growth of Corynebacterium glutamicum on 5-oxo-L-proline (pyroglutamate) as a carbon and nitrogen source requires the PxpR-controlled pxpTABC genes” (Applied and Environmental Microbiology, 2026).)
